Values quoted from earlier work as cited in patent US20100035919A1, “COMPOUNDS USEFUL AS INHIBITORS OF PROTEIN KINASES” (ABBOTT LABORATORIES, priority 2008, published 2010).

What was measured:
[1] = test system: rat; settings: experimental myocardial infarction (MI); rat model of chronic hypertension induced congestive heart failure
[2] = test system: vein grafts; settings: weeks following the procedure
[3] = test system: Zucker obese rats; settings: 4 weeks
[4] = test system: OLETF rats; settings: high dose

SMILES	effect on ischemia-reperfusion injury, myocardial infarct size and myocardial fibrosis [1]	VSMC apoptosis [2]	intimal thickening and vascular smooth muscle cell (VSMC) proliferation [2]	blood pressure, glucose and lipid metabolism, insulin signalling, endothelial dysfunction [3]	development of diabetes, obesity, and dyslipidemia [4]	serum adiponectin levels [4]	cerebral blood flow (in vivo)	neuroprotection (under CNS ischemic conditions)
O=S(=O)(c1cccc2cnccc12)N1CCCNCC1 [fasudil]	decrease ischemia-reperfusion injury, myocardial infarct size, and myocardial fibrosis	enhanced	significantly suppressed	reduced blood pressure, corrected glucose and lipid metabolism, improved insulin signalling and endothelial dysfunction	completely suppressed	increased	increased cerebral blood flow	neuroprotective
C[C@@H](N)[C@H]1CC[C@H](C(=O)Nc2ccncc2)CC1 [Example Y-27632, Y-27632]	decrease ischemia-reperfusion injury, myocardial infarct size, and myocardial fibrosis	–	–	–	–	–	–	–
